Two compounds from PMC7253177, “Gain of channel function and modified gating properties in TRPM3 mutants causing intellectual disability and epilepsy” (eLife, 2020) can be followed below.

The test deals with T1, WT human TRPM3 (Homo sapiens, UniProt Q9HCF6).
T1 construct: expressed in transfected cells; host or cells: HEK293T
T1 sequence (Q9HCF6 1-1325 isoform Q9HCF6-10): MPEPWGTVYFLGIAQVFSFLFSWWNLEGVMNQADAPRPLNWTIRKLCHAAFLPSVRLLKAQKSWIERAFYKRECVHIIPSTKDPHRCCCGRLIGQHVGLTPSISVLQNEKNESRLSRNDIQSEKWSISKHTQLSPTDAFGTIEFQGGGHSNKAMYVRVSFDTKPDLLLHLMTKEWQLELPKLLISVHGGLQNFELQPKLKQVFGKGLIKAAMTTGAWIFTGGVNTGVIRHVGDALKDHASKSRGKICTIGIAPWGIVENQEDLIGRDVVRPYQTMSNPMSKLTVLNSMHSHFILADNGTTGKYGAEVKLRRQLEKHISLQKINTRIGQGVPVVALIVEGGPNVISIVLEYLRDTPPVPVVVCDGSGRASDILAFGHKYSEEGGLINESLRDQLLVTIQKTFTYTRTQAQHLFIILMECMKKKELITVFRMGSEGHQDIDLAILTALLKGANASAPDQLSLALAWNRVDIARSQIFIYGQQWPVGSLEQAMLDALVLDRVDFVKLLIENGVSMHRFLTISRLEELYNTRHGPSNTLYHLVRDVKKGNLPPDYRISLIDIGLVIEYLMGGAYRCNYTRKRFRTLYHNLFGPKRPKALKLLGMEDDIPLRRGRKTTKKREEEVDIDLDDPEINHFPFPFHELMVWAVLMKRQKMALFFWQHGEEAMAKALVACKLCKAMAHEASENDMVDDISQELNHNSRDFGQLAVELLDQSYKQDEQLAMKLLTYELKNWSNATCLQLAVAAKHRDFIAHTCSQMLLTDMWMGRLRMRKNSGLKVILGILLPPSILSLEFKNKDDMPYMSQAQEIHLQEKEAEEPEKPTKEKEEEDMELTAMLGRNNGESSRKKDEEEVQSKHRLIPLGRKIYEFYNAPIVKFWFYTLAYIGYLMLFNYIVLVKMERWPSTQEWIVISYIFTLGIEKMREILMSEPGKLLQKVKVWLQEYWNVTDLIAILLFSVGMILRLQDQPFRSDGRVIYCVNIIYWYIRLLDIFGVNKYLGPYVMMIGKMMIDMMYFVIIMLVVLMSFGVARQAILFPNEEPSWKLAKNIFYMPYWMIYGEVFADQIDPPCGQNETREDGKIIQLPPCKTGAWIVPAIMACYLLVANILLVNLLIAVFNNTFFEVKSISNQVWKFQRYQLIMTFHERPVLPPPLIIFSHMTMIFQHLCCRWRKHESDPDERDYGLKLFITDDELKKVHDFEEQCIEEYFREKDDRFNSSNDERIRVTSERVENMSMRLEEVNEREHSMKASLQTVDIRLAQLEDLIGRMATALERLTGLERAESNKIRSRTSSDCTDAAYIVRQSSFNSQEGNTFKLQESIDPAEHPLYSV
Kind of test: Fura-2-based calcium imaging, HEK293T cells transfected with WT hTRPM3. In kind it is cell-based. Here is the method: HEK293T cells ([Graham et al., 1977]) were cultured as described previously ([Vriens et al., 2007]) and used up in passage number 14. HEK293T cells were tested for the lack of mycoplasma and transiently transfected with 2 µg of DNA using TransIT transfection reagent (Mirus) 36–48 hr before the measurements. In case of co-cultures a ratio of 1:1 between hTRPM3-YFP WT and mutants-YFP DNA was used.
Changes in intracellular calcium concentration were monitored using ratiometric Fura-2-based fluorimetry. Cells were loaded with 2 µM Fura-2-acetoxymethyl ester (Alexis Biochemicals) for 30 min at 37°C. Fluorescence was measured during alternating illumination at 340 and 380 nm using Eclipse Ti (Nikon) fluorescence microscopy system, and absolute calcium concentration was calculated from the ratio of the fluorescence signals at these two wavelengths (R = F340/F380) as [Ca^2+]=Km × (R-Rmin)/(Rmax-R), where Km, Rmin and Rmax were estimated from in vitro calibration experiments with known calcium concentrations. The bath solution contained (in mM) 138 NaCl, 5.4 KCl, 2 CaCl2, 2 MgCl2, 10 glucose, and 10 HEPES, pH 7.4. […] The chemical ligands were dissolved in bath solution from a stock diluted in DMSO.

For `CCC1(c2ccccc2)C(=O)NCNC1=O` [primidone], for the setting “primidone 100 µM, isosakuranetin 50 µM”, the “Effect on basal [Ca2+]i” value was “reduced [Ca^2+]i”. Regarding pregnenolone sulfate [PS], the “PS concentration required to induce a detectable calcium response” value was determined as 10 µM.
